These results are taken from patent EP3586875A1, “STABILIZATION OF POLYSORBATE” (Lonza Limited, priority 2018, dated 2020).

What all share (assay type): physicochemical
Data set [1] in a line: LC-UV-MS quantification of 4HNE in PS80 solutions after storage. Particulars: 10% PS80; Air; 100-fold diluted; RL 50 micro M. As for the experimental part:
Studies were performed to investigate oxidative degradation of PS20 and PS80 in aqueous solutions containing the antioxidants BHT or BHA. The following solutions were tested: • 1) polysorbate solutions of 10% (w/v) ± 0.02% (w/v) of the respective antioxidant, • 2) polysorbate solutions of 0.1% (w/v) ± 0.0002% (w/v) of the respective antioxidant. For solution 1), stabilized (containing the antioxidant BHT or BHA at a concentration of 0.2% (w/w)) and unstabilized (not containing any antioxidant) neat PS was diluted to a concentration of 10% (w/v) by adding 5 g of PS into a 50 mL volumetric flask and filling up to the 50 mL mark with H2O. The solution was stirred with a magnetic stirrer for about 20 minutes to ensure complete dissolution of PS. 5 ml of each solution was aliquoted into 6R vials. Each vial was closed with a stopper and a cap. […]
LC-UV-MS was used to quantify 4HNE levels in solutions of 10% PS80 (w/v) ± 0.02% (w/v) of the antioxidants BHT or BHA. […]
Quantification of 4HNE was achieved by integration of the LC-UV signals (lambda = 220 nm) and using a calibration curve obtained from the integrated LC-UV signals (lambda = 220 nm) of the external reference 4HNE. As a reference standard aqueous 4HNE solutions with concentrations between 0.05 ppm and 1 ppm were prepared and directly analyzed by LC-UV-MS. […]

The nature of data set [2]: HPLC-FMA (fluorescence micelle assay), polysorbate concentration after storage. Particulars: diluted to target 0.04% PS (w/v). As for the experimental part:
(§1) Studies were performed to investigate oxidative degradation of PS20 and PS80 in aqueous solutions containing the antioxidants BHT or BHA. The following solutions were tested: • 1) polysorbate solutions of 10% (w/v) ± 0.02% (w/v) of the respective antioxidant, • 2) polysorbate solutions of 0.1% (w/v) ± 0.0002% (w/v) of the respective antioxidant. For solution 1), stabilized (containing the antioxidant BHT or BHA at a concentration of 0.2% (w/w)) and unstabilized (not containing any antioxidant) neat PS was diluted to a concentration of 10% (w/v) by adding 5 g of PS into a 50 mL volumetric flask and filling up to the 50 mL mark with H2O. The solution was stirred with a magnetic stirrer for about 20 minutes to ensure complete dissolution of PS. 5 ml of each solution was aliquoted into 6R vials. Each vial was closed with a stopper and a cap.
For solution 2), 50 micro L of the 10% (w/v) PS solutions were transferred into 6R vials and filled up with 4.95 mL H2O to a final concentration of 0.1% (w/v) PS.
(§2) Throughout the experiments, the solutions were subjected to three different conditions as follows: "T0": stored at -20°C for 7 weeks, "H2O2": stored at 25°C and 60% humidity for 7 weeks in the presence of hydrogen peroxide (H2O2) at a concentration of 10% (w/w) based on the molar ratio of used antioxidant. "Air": stored at 40°C and 75% humidity for 7 weeks and exposed to air (needle in vial stopper for free air exchange during incubation).
HPLC FMA was used to measure the concentration of polysorbate in solutions of 10% PS20 ± 0.02% (w/v) of the antioxidants BHT or BHA, solutions of 10% PS80 (w/v) ± 0.02% (w/v) of the antioxidants BHT or BHA, and solutions of 0.1% PS80 (w/v) ± 0.0002% (w/v) of the antioxidants BHT or BHA. Samples were diluted to the target concentration of 0.04% PS (w/v) prior to analysis.
The following HPLC fluorescence detector conditions were applied: Column: knitted reaction coil L x I.D. 20mx 0.25mm, volume 1.0mL SUPELCO, ambient temperature; injection volume: 10 micro L; flow: 1.5 mL/min; isocratic 2min (A: 0.15M sodium chloride, 0.05 M L-histidine, pH = 6, 5%(v/v) acetonitrile, 5 micro M N-phenyl-1-naphtylamine (NPN), 15 ppm Brij® 35); FLD: lambda excitation = 350 nm, lambda emission = 420 nm, data mode: emission.
Quantification of each sample type was performed by using 10% T0 samples for preparation of an external calibration curve from 0.02% to 0.06% PS.
Empower 2 was used as software for quantification.
The assay is based on the uptake of the fluorescent dye NPN by surfactant micelles using flow injection analysis and subsequent fluorescence detection. The dye is present in the mobile phase. In the lipophilic surrounding in the inside of the micelles the fluorescent signal is 10-fold higher than in aqueous mobile phase. Therefore, the concentration of polysorbate can be measured according to the formation of micelles and the uptake of the dye by the subsequent increase of the signal intensity.

A short description of data set [3]: LC-UV-MS quantification of free fatty acids in polysorbate solutions after storage. As for the experimental part: as §1, §2
LC-UV-MS was used to quantify FFA levels in solutions of 10% PS (w/v) ± 0.02% (w/v) of the antioxidants BHT or BHA. The FFAs lauric acid, myristic acid and palmitic acid were quantified for PS20-containing solutions and palmitic acid, stearic acid and oleic acid were quantified for PS80-containing solutions. The RL for all FFAs was 50000 ppb.
LC-UV-MS conditions were applied as in Example 2. Quantification of the FFAs was achieved by integration of the LC-MS signals at their corresponding ion trace (lauric acid = m/z 199.3; myristic acid = m/z 227.3; palmitic acid = m/z 255.3; stearic acid = m/z 283.3; oleic acid = m/z 281.3) in negative mode and using a calibration curve obtained from the integrated LC-MS signals of each corresponding ion trace of the external reference of lauric acid, myrisitic acid, palmitic acid, stearic acid and oleic acid. FFA reference standards in aqueous solutions at concentrations from 0.5 ppm to 5 ppm were prepared. All reference standard solutions were directly analyzed by LC-UV-MS.

Data set [4] is described as follows: HS-GC-MS quantification of headspace hexanal in PS80 solutions after storage. Particulars: 10% PS80, RL of 100 ppb. As for the experimental part: as §1, §2
GC-MS was used to quantify headspace hexanal levels for solutions of 10% PS (w/v) ± 0.02% (w/v) of the antioxidants BHT or BHA.
The following HS-GC-MS conditions were applied: Headspace oven: 10 min at 80°C, Column: Agilent HP-5MS, 30 m x 250 micro M x 0.25 micro M; GC oven: 3 min at 35°C, then 20°C/min to 320°C, then 10 min at 320°C; column flow: 1.3 mL/min; MS: Full scan, m/z = 35 - 300. As a reference standard aqueous toluene solutions with concentrations between 0.1 ppm and 1 ppm in 10 mL H2O were prepared and directly analyzed by HS-GC-MS.
1 mL of each sample was transferred into a headspace vial with a volume of 20 mL, closed, and analyzed directly.
Quantification was achieved by integration of the HS-GC-MS signals (TIC) and using a calibration curve obtained from the integrated HS-GC-MS signals (TIC) of the external reference toluene.
Tentative identification of degradants was performed by comparing the mass spectrum of each GC-MS signal against the NIST14 standard reference database.
The degradant most consistently identified by HS-GC-MS to show a value above the RL of 100 ppb was hexanal.

Compound `COc1ccc(O)c(C(C)(C)C)c1` [BHA, butylated hydroxyanisole] returned a 4HNE measured in data set [1] below 50 micro M. Also, the “X= calculated concentration in % of the average of 2 injections (polysorbate)” value in data set [2] (PS20 - 10%, Air) is listed as around 0.04%; in data set [2] (PS80 - 0.1%, H2O2, RL 0.02%) it was around 0.04%; in data set [2] (PS80 - 10%, Air, RL 0.02%) it was around 0.04%. In addition, in data set [3] (PS20 - 10%, Air, RL 50000ppb), the “X = calculated fatty acid concentration in ppb, Lauric acid” value is given as “below 200000 ppb”. The “X = calculated fatty acid concentration in ppb, Myristic acid” value in data set [3] (PS20 - 10%, Air, RL 50000ppb) is “around 50000 ppb”. Besides, the “X = calculated fatty acid concentration in ppb, Oleic acid” value in data set [3] (PS80 - 10%, Air, RL 50000ppb) is listed as “around 200000 ppb”. Moreover, the “X = calculated fatty acid concentration in ppb, Stearic acid” value in data set [3] (PS80 - 10%, Air, RL 50000ppb) is given as “around 60000 ppb”. Besides, the “hexanal (headspace)” value in data set [4] (Air), in data set [4] (H2O2) and in data set [4] (T0) was “no hexanal could be detected” throughout.
Turning to `Cc1cc(C(C)(C)C)c(O)c(C(C)(C)C)c1` [BHT, butylated hydroxytoluene], in data set [1], the 4HNE measured is listed as below 50 micro M. Also, the “X= calculated concentration in % of the average of 2 injections (polysorbate)” value in data set [2] (PS20 - 10%, Air) is around 0.04%; in data set [2] (PS80 - 0.1%, H2O2, RL 0.02%), around 0.04%; in data set [2] (PS80 - 10%, Air, RL 0.02%), around 0.04%. Besides, the “X = calculated fatty acid concentration in ppb, Lauric acid” value in data set [3] (7 weeks, 0.02 % (w/v)) is listed as “below 200000 ppb”. For the same compound, the “X = calculated fatty acid concentration in ppb, Myristic acid” value in data set [3] (7 weeks, 0.02 % (w/v)) is given as “around 50000 ppb”. Besides, the “X = calculated fatty acid concentration in ppb, Oleic acid” value in data set [3] (7 weeks, 0.02 % (w/v)) was “around 100000 ppb”. Further, the “X = calculated fatty acid concentration in ppb, Stearic acid” value in data set [3] (7 weeks, 0.02 % (w/v)) was “around 60000 ppb”. Besides, the “hexanal (headspace)” value in data set [4] (Air), in data set [4] (H2O2) and in data set [4] (T0) was “no hexanal could be detected” each time.
